Laboratory results reported in patent publication US12281112B2, “Compounds for inhibiting NLRP3 and uses thereof” (Ventus Therapeutics U.S., Inc., priority 2021, dated 2025).

Tests used:
NLRP3 [1] = target: T1, NLRP3 (Homo sapiens, UniProt Q96P20); experiment: Human PBMC NLRP3 Assay; format: cell-based
Method: Human PBMC NLRP3 Assay: Cryopreserved PBMCs were rapidly thawed in a 37° C. water bath for 2 min. […] A count was undertaken using a hemocytometer and adjusted to 2.5×10^5 cells/mL. V-shaped 96-well plates were seeded with 200 μL of PMBCs (5×10^4) per well and subsequently incubated overnight at 37° C. with 5% CO2. Assay Media was then prepared containing 100 ng/ml of LPS. PBMCs were then centrifuged at 1,200 RPM for 5 min, serum containing media was aspirated, and 150 μL/well of Assay Media+LPS was immediately added. Assay Media without LPS was added in the untreated control wells. Cells were then primed with LPS for 4 h at 37° C. with 5% CO2. A concentration response curve (CRC) was prepared of 1000× test compound in 100% DMSO. The CRC was then diluted 1:50 in Assay Media and then further diluted by 1:5× in Assay Media resulting in a final 4×CRC in 0.4% DMSO/Assay Media. 50 μL/well of 4× test compound CRC or vehicle (0.4% DMSO/Assay Media) was then transferred into each well and subsequently incubated for 30 min at 37° C. with 5% CO2. Cells were stimulated by adding 4 μL of 250 mM ATP, using a 250 mM stock prepared in 1 M Hepes without further dilution (for a final concentration of 5 mM), for 1 h at 37° C. with 5% CO2. Plates were then centrifuged at 1200 RPM for 5 min; and 50 μl of the media was transferred to a clean 96-well storage plate for cytokine measurements using the mesoscale platform, and stored at −80° C. until analyzed.

NLRP3 [2] = target: T1, NLRP3; experiment: Human whole blood (hWB) NLRP3 Assay; format: cell-based; set-up: Blood is collected from healthy volunteers in heparin lithium tubes; from tissue; host or cells: pooled heparinised whole blood from healthy human volunteers, LPS-primed, ATP-stimulated
Method: Blood is collected from healthy volunteers in heparin lithium tubes. • 2. Plate 90 μL of pooled blood per well in 96-well U-bottom plates. • 3. Add 5 uL of 20×LPS (20 ug/mL, final concentration of 1 ug/mL) and mix by gentle pipetting. • 4. Incubate in TC incubator for 4.5 hours. • 5. Add 5 uL of 20× compound or vehicle per well and mix by gentle pipetting. • a. Compounds are diluted 1/50 in HBSS to prepare a 20× dilution curve in 2% DMSO • 6. Incubate for 30 minutes in TC incubator with shaking (450 rpm). • 7. […] Incubate in TC incubator for 30 minutes with shaking (450 rpm). • 9. Centrifuge plate for 10 minutes at 800×g and carefully remove ˜70 μL of plasma. Freeze plasma if required. • 10. Analyze human IL-1b with IL-1b MSD assay (K151TUK) • a.

[3] = Table 5: fused bicyclic analogs vs monocyclic pyridazines
[4] = LPS 1 ug/mL 4.5 h, compound 30 min, ATP 5 mM 30 min, IL-1b MSD assay, potency code
[5] = human PBMCs primed with LPS 4 h, compound 30 min, ATP 5 mM 1 h, cytokine measurement on mesoscale platform, potency code
[6] = Table 6: regioisomer comparison

T1 sequence (Q96P20 whole entry): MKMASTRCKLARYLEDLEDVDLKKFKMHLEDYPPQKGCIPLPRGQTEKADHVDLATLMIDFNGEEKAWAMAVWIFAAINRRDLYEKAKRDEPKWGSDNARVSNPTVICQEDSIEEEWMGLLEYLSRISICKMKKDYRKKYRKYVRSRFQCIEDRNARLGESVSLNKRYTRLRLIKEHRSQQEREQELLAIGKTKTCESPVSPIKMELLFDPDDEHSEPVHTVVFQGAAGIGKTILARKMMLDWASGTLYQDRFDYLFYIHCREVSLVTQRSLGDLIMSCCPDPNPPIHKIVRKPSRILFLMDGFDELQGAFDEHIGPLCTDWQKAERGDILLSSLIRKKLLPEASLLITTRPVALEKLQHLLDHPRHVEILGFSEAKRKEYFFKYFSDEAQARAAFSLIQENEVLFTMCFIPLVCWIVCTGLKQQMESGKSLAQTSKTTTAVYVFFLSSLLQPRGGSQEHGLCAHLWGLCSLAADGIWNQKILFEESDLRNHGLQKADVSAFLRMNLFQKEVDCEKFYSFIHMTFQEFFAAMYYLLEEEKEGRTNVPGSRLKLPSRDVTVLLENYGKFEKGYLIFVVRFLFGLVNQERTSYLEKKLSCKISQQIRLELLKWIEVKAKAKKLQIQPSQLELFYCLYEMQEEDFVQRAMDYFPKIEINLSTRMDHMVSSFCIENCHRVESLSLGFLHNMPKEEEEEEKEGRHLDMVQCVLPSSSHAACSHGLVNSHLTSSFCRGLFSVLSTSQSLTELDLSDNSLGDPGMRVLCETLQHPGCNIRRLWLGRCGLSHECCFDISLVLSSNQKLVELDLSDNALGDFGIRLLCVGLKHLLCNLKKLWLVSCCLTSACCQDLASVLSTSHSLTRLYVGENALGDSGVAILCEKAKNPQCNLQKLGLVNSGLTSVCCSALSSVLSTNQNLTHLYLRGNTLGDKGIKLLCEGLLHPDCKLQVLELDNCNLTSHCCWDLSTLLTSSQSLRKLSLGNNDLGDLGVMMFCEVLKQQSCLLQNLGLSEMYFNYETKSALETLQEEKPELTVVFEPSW

SMILES | IC50 (NLRP3 [2]; [4]) [nM] | IC50 (NLRP3 [1]; [5]) [nM] | other results
Brc1ccc(-c2ccc(NCC3CCCO3)nn2)cc1 (stereo not shown) |  |  | IC50 (NLRP3 [1]; [3]): 3800 nM
Clc1ccc(-c2nnc(NC[C@H]3CCCO3)c3cc(Cl)ccc23)cc1 (racemic) [Compound 21, 7-chloro-4-(4-chlorophenyl)-N-[[rac-(2R)-tetrahydrofuran-2-yl]methyl]phthalazin-1-amine] | < 300 | 300 to 500 | 
Clc1ccc(-c2nnc(NCC3CCCO3)c3ccncc23)cc1 (single isomer, unassigned) |  |  | IC50 (NLRP3 [1]; [6]): 2900 nM
Clc1ccc(-c2nnc(NCC3COCCO3)c3ccccc23)cc1 (single isomer, unassigned) [Compound 23] | > 1000 | 500 to 1000 | 
Clc1ccc(-c2nnc(NCC3COCCO3)c3ccccc23)cc1 (single isomer, unassigned) [Compound 24] | < 300 |  | 
CC1(CNc2ccc(-c3ccc(Br)cc3)nn2)CCCO1 (stereo not shown) [Compound 6, 6-(4-bromophenyl)-N-[(2-methyltetrahydrofuran-2-yl)methyl]pyridazin-3-amine] | < 300 | > 1000 | 
Brc1ccc(-c2nnc(NCC3CCCO3)c3ccccc23)cc1 (stereo not shown) [Compound 7, 4-(4-bromophenyl)-N-(tetrahydrofuran-2-ylmethyl)phthalazin-1-amine] | > 1000 | < 300 | 
CC1(CNc2nnc(-c3ccc(Cl)cc3)c3ccccc23)CCCO1 (stereo not shown) [Compound 8, 4-(4-chlorophenyl)-N-[(2-methyltetrahydrofuran-2-yl)methyl]phthalazin-1-amine] | < 300 |  | 
Clc1ccc(-c2nnc(NCC3CCCOC3)c3ccccc23)cc1 (stereo not shown) [Compound 9, 4-(4-chlorophenyl)-N-(tetrahydropyran-3-ylmethyl)phthalazin-1-amine] | 500 to 1000 |  | 
Clc1ccc(-c2nnc(NCC3CCOCC3)c3ccccc23)cc1 [Compound 10, 4-(4-chlorophenyl)-N-(tetrahydropyran-4-ylmethyl)phthalazin-1-amine] | > 1000 |  | 
FC(F)(F)c1ccc(-c2nnc(NCC3CCCO3)c3ccccc23)cc1 (stereo not shown) [Compound 11, N-(tetrahydrofuran-2-ylmethyl)-4-[4-(trifluoromethyl)phenyl]phthalazin-1-amine] | < 300 | < 300 | 
Clc1ccc(-c2nnc(NCC3CCCCO3)c3ccccc23)cc1 (stereo not shown) [Compound 17, 4-(4-chlorophenyl)-N-(tetrahydropyran-2-ylmethyl)phthalazin-1-amine] | > 1000 |  | 
CN(CC1CCCO1)c1nnc(-c2ccc(Cl)cc2)c2ccccc12 (stereo not shown) [Compound 19, 4-(4-chlorophenyl)-N-methyl-N-(tetrahydrofuran-2-ylmethyl)phthalazin-1-amine] | 300 to 500 |  | 
CC1COC(CNc2nnc(-c3ccc(Cl)cc3)c3ccccc23)C1 (stereo not shown) [Compound 22, 4-(4-chlorophenyl)-N-[(4-methyltetrahydrofuran-2-yl)methyl]phthalazin-1-amine] | 500 to 1000 |  | 
Brc1ccc(-c2nnc(NCC3CCCO3)c3ccccc23)cc1 (stereo not shown) [drawing 168] |  |  | IC50 (NLRP3 [1]; [3]): 190 nM
Clc1ccc(-c2ccc(NCC3CCCO3)nn2)cc1 (stereo not shown) [drawing 169] |  |  | IC50 (NLRP3 [1]; [3]): 64000 nM
Clc1ccc(-c2ccc(NCC3CCCO3)nn2)cc1 (stereo not shown) [drawing 171] |  |  | IC50 (NLRP3 [2]; [6]): > 50000 nM; IC50 (NLRP3 [1]; [6]): 64000 nM

Further lines, with some results ahead:

IC50 (NLRP3 [2]; [4]) [nM] | IC50 (NLRP3 [1]; [5]) [nM] | SMILES | other results
 | < 300 | Oc1cc(Cl)ccc1-c1nnc(NC[C@H]2CCC(F)(F)C2)c2cnccc12 (single isomer, unassigned) [Compound 91] | 
< 300 |  | Clc1ccc(-c2nnc(NC[C@@H]3CCCO3)c3ccncc23)cc1 [Compound 2, (S)-4-(4-chlorophenyl)-N-((tetrahydrofuran-2-yl)methyl)pyrido[3,4-d]pyridazin-1-amine] | 
300 to 500 |  | Clc1ccc(-c2nnc(OC[C@H]3CCCO3)c3cnccc23)cc1 [Compound 3, (R)-1-(4-chlorophenyl)-4-((tetrahydrofuran-2-yl)methoxy)pyrido[3,4-d]pyridazine] | 
300 to 500 |  | Clc1ccc(-c2nnc(OC[C@H]3CCCO3)c3ccncc23)cc1 [Compound 4, (R)-4-(4-chlorophenyl)-1-((tetrahydrofuran-2-yl)methoxy)pyrido[3,4-d]pyridazine] | 
500 to 1000 | > 1000 | Clc1ccc(-c2nnc(NCC3CCCO3)c3ccncc23)cc1 (stereo not shown) [Compound 15, 4-(4-chlorophenyl)-N-(tetrahydrofuran-2-ylmethyl)pyrido[3,4-d]pyridazin-1-amine] | 
500 to 1000 |  | OCCNc1nnc(-c2ccc(Cl)cc2)c2ccccc12 [Compound 16, 2-[[4-(4-chlorophenyl)phthalazin-1-yl]amino]ethanol] | 
< 300 |  | COCCNc1nnc(-c2ccc(Cl)cc2)c2ccccc12 [Compound 18, 4-(4-chlorophenyl)-N-(2-methoxyethyl)phthalazin-1-amine] | 
300 to 500 | 300 to 500 | Cc1cc(Cl)ccc1-c1nnc(NCC2CCCO2)c2ccccc12 (stereo not shown) [Compound 20, 4-(4-chloro-2-methyl-phenyl)-N-(tetrahydrofuran-2-ylmethyl)phthalazin-1-amine] | 
 | < 300 | CC(C)(O)CNc1nnc(-c2ccc(Cl)cc2O)c2ccncc12 [Compound 82, 5-chloro-2-(4-((2-hydroxy-2-methylpropyl)amino)pyrido[3,4-d]pyridazin-1-yl)phenol] | 
 | < 300 | COC(C)(C)CNc1nnc(-c2ccc(Cl)cc2O)c2ccncc12 [Compound 83, 5-chloro-2-(4-((2-methoxy-2-methylpropyl)amino)pyrido[3,4-d]pyridazin-1-yl)phenol] | 
 | < 300 | Oc1cc(Cl)ccc1-c1nnc(N[C@H]2CCOC2)c2cnccc12 [Compound 89, (S)-5-chloro-2-(4-((tetrahydrofuran-3-yl)amino)pyrido[3,4-d]pyridazin-1-yl)phenol] | 
 | < 300 | CN1CCC[C@H]1CNc1nnc(-c2ccc(Cl)cc2O)c2ccncc12 [Compound 93, (S)-5-chloro-2-(4-(((1-methylpyrrolidin-2-yl)methyl)amino)pyrido[3,4-d]pyridazin-1-yl)phenol] | 
